{
  "source": "patent US8691864B2",
  "about": "“Agents useful for reducing amyloid precursor protein and treating dementia and methods of use thereof” (priority 2000, dated 2014)",
  "key": {"total Aβ peptide": {"system": "total Aβ peptide", "assay": "total Aβ ELISA in SK-N-SH conditioned medium", "type": "cell-based, human", "conditions": "50 μM", "experimental": "Total Aβ peptide levels in SH-SY-SY and SK-N-SH cultured samples were assayed by a sensitive ELISA (Suzuki et al., 1994). For total Aβ measurements in conditioned medium, the rabbit polyclonal antibody #3160 (1-40 residues of Aβ) was used as a capture antibody for all species of Aβ peptide (Aβ1-40 and Aβ1-42) while monoclonal antibody 4G8 (17-25 residues of Aβ) was used to detect Aβ peptide levels, and the values were expressed as the mean of six independent assays.\nLikewise, (+)-phenserine reduced BAPP protein levels and total Aβ peptide levels at 16 hours (FIG. 5)."}, "SK-N-SH cells": {"system": "SK-N-SH cells", "assay": "LDH assay / cell number and viability, SK-N-SH cells", "type": "cell-based, human", "from_the_text": "Measurement of released lactate dehydrogenase (LDH) in the conditioned medium was undertaken as a marker of cell viability and integrity, as described previously (Lahiri et al., 1997 and 1998).\nThis was not associated with cellular dysfunction, as determined by measurement of LDH levels versus untreated controls (FIG. 4C)."}, "βAPP": {"system": "βAPP", "assay": "βAPP protein levels in U373 MG astrocytoma cells, western blot", "type": "cell-based", "conditions": "FIGS. 6A-C, alone or with PD98059 or LY294002", "experimental": "SK-N-SH neuroblastoma cells were cultured on 60 mm dishes at a concentration of 3×10^6 cells, and SH-SY-5Y neuroblastoma and U373 astrocytorna cell lines were plated in 100 mm dishes at a concentration of 3×10^5 cells. The cells were allowed to grow in complete medium ([…], 2 mM glutamine in DMEM) for 3 to 4 days until they reached 70% confluence. To start the experiment, spent medium was removed and replaced with fresh medium (SKNSH—4 ml of DMEM+0.5% FBS; U373—5 ml of DMEM+2.5% FBS) containing 0, 5, or 50 μM phenserine. The cells were incubated at 37° C., 5% CO2 for the specific times indicated. Different media and sera were purchased from Life Technologies (Gaithersberg, Md.). […]\nAt each time point, the spent medium was collected and stored at −70° C. for later analysis of secretory βAPP levels. The cells were washed twice with PBS, pH 7.4 and incubated on ice for 15 min for lysis with 100 μL of lysis buffer (20 mM HEPES, 2 mM EGTA, 50 mM (β-glycophosphate, 1 mM sodium orthovanadate, 1% Triton X-100, 10% glycerol) containing appropriate protease inhibitors (2 mM PMSF, 100 μg/mL aprotinin, 25 μM leupeptin and 20 μg/mL soybean trypsin inhibitor). Each lysate was microcentrifuged for 15 min at 14 000 rpm. Protein levels of the supernatant were analyzed by the Bradford protein assay (BioRad, Melville, N.Y.). […]"}},
  "data": [
    {"smiles": "CN1CC[C@@]2(C)c3cc(OC(=O)Nc4ccccc4)ccc3N(C)[C@@H]12", "note": "[(−)-phenserine]", "values": [
      {"measurement": "reduction of total Aβ versus untreated controls", "setting": "total Aβ peptide; 8 hours", "value": 14, "unit": "%"},
      {"measurement": "reduction of total Aβ versus untreated controls", "setting": "total Aβ peptide; 16 hours", "value": 31, "unit": "%"},
      {"measurement": "LDH levels in media", "setting": "SK-N-SH cells; SK-N-SH, 50 μM, up to 16 hours", "value": "no significant difference between treated and untreated levels"},
      {"measurement": "toxicity as assessed by an LDH assay", "setting": "SK-N-SH cells; SK-N-SH, 0.5, 5 or 50 μM, 16 hours", "value": "no significant toxicity"},
      {"measurement": "reduction of βAPP protein levels, densitometric quantification", "setting": "βAPP", "value": "> 25", "unit": "%"}
    ]}
  ]
}
